What was measured:
[1] = WST-1 cytotoxicity assay, Caco-2; assay type: cell-based; details: human, Caco-2 cells (colon adenocarcinoma); WST-1, 48 h incubation; read-out: EC50 class, cytotoxic effect, CL-4 (Caco-2)
Experimental: (§1) For this cytotoxic evaluation of the compounds the commercial available WST-1 assay (Roche) was used according to the manufacturer's instructions. The assay is based on the cleavage of the tetrazolium salt WST-1 by mitochondrial dehydrogenases found in viable cells. In general compounds were added to cells cultured in 96-well plates at 37° C. After 48 h of incubation 10 μl of WST-1 solution was added. The formazan dye was analyzed with an ELISA plate reader at (450 vs. 620) nm. CL-1: human acute myeloid leukemia, HL-60 CL-2: human cervix carcinoma, HeLa CL-3: human prostate carcinoma, PC-3 CL-4: human colon adenocarcinoma, Caco-2 CL-5: human breast adenocarcinoma, MCF-7

[2] = biological target: cathepsin B (Homo sapiens, UniProt P07858); test: cathepsin B assay; assay type: biochemical; details: 0.2 μg/ml cathepsin B, 2 mM Z-Arg-Arg-pNA, pH 5.8, 30° C., 30 min incubation; read-out: IC50 class, Target T-8 (Cathepsin)
Experimental: (§2) In order to investigate the impact of some of the inventive compounds on the activity of key proteases the following assay was performed: Protease activities were measured spectrophotometrically at 30° C. according to Schomburg and Salzmann (Schomburg, B.; Salzmann M. GBF: Enzyme Handbook. Springer Verlag, Berlin Heidelberg, 1991) and Bergmeyer et al. (Bergmeyer, H. U.; Bergmeyer, J.; Graβl, M. Methods of Enzymatic Analysis, Vol. V Enzymes 3: Peptides, Proteinases and Their Inhibitors. pp 55-371, VCH, Weinheim, 1988). The release of 4-nitroaniline was determined at 390 nm with a Spectramax Plus UV/Vis spectrophotometer (Molecular Devices). The cathepsin B assay was performed in a reaction mixture containing 0.2 μg/ml cathepsin B, 2 mM Z-Arg-Arg-pNA in 88 mM KH2PO4, 12 mM Na2HPO4, 1.33 mM EDTA, 0.03% Brij 35 (pH 5.8). The trypsin assay was carried out in a reaction mixture containing 0.1 μg/ml trypsin and 120 μM Ac-Ala-Ala-Ser(PO3H2)-Pro-Arg-pNA in 35 mM HEPES (pH 7.8) and the papain assay in a mixture consisting of 16 μg/ml papain and 2 mM Bz-DL-Arg-pNA in 10 mM Na2HPO4, 2 mM L-Cys, 5 mM EDTA (pH 6.5). In general, reactions were started by addition of peptide substrate after a 30 min incubation of 1-100 μM effector with given concentrations of enzyme.

[3] = WST-1 cytotoxicity assay, HeLa; assay type: cell-based; details: human, HeLa cells (cervix carcinoma); WST-1, 48 h incubation; read-out: EC50 class, cytotoxic effect, CL-2 (HeLa)
Experimental: as §1

[4] = WST-1 cytotoxicity assay, HL-60; assay type: cell-based; details: human, HL-60 cells (acute myeloid leukemia); WST-1, 48 h incubation; read-out: EC50 class, cytotoxic effect, CL-1 (HL-60)
Method in brief: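 Human tumour cell lines in culture were exposed to compounds at 37° C for 48 h, then given WST-1. Viability was read as formazan absorbance at (450 vs. 620) nm.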

[5] = WST-1 cytotoxicity assay, PC-3; assay type: cell-based; details: human, PC-3 cells (prostate carcinoma); WST-1, 48 h incubation; read-out: EC50 class, cytotoxic effect, CL-3 (PC-3)
Experimental: as §1

[6] = system: tumor cell lines (HL-60, HeLa, PC-3, Caco-2, MCF-7); test: WST-1 cytotoxicity assay, tumor cell lines (panel statement); assay type: cell-based, human; details: WST-1, 48 h; table 4
Experimental: as §1

[7] = system: HL-60 cells; test: FACS measurements and TUNEL assay (Apo-Direct kit); assay type: cell-based, human; details: FIG. 2
From the text: Enari M. Sakahira H. Yokoyama H. Okawa K. Iwamatsu A. Nagata S. A caspase-activated DNase that degrades DNA during apoptosis, and its inhibitor ICAD [erratum appears in Nature 1998 May 28; 393(6683):396.]. Nature. 391:43-50, 1998 • Darzynkiewicz Z. Juan G. Li X. Gorczyca W. Murakami T. Traganos F. Cytometry in cell necrobiology: analysis of apoptosis and accidental cell death (necrosis). Cytometry. 27:1-20, 1997
Apoptotic HL-60 cells were detected by FACS analysis of FITC-dUTP-labelled DNA breaks using the Apo-Direct kit (BD-Pharmingen) according to the manufacturer's protocol.

[8] = biological target: T1, Papain (Carica papaya, UniProt P00784); test: papain assay; assay type: biochemical; details: 16 μg/ml papain, 2 mM Bz-DL-Arg-pNA, pH 6.5, 30° C., 30 min incubation; read-out: IC50 class, Target T-6 (Papain)
T1 sequence (P00784 134-345): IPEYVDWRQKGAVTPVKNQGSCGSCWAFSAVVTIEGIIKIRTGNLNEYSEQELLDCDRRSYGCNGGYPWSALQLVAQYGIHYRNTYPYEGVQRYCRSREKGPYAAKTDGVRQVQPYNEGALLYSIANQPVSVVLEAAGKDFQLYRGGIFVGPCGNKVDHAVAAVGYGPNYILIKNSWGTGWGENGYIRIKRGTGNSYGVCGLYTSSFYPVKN
Experimental: as §2

[9] = system: cyclin D1 in MCF-7 and HeLa cells; test: Cyclin D1 down regulation (western blot marker analysis); assay type: cell-based, human
Experimental: MCF-7 (5×10^5 cells/well) and HeLa cells (1.5×10^5 cells/well) were seeded in 6-well plates and incubated at 37° C. over night. Compounds or DMSO (final solvent concentration 0.1%) were added to the cells and incubated for different times as indicated. Subsequently, cells were lysed in RIPA buffer for 30 min on ice and centrifuged for 20 min at 4° C. After addition of electrophoresis sample buffer (4×) and 50 mM DTT to the supernatant, samples were boiled for 4 min at 95° C. Samples (equivalent to 2×10^5 cells/well) were run on a 15% SDS gel followed by blotting onto PVDF membrane.
The membrane was blocked for 1 h in 10 mM Tris (pH 7.5), 100 mM NaCl, 0.1% Tween-20 and 5% non-fat dry milk (blocking buffer) and incubated for 1 h with mouse anti-hCyclin D1 monoclonal antibody (clone DCS-6, BD Biosciences) diluted to 1 μg/ml in blocking buffer. Blots were washed 3×10 min with 10 mM Tris (pH 7.5), 100 mM NaCl, 0.1% Tween-20 (washing buffer) and incubated with 0.7 μg/ml peroxidase-conjugated sheep anti-mouse IgG (Sigma) in blocking buffer for 1 h. After washing 3×10 min with washing buffer, the plot was developed with the ECL+ detection kit (Amersham Biosciences).

[10] = biological target: T2, Trypsin (UniProt P00760); test: trypsin assay; assay type: biochemical; details: 0.1 μg/ml trypsin, 120 μM Ac-Ala-Ala-Ser(PO3H2)-Pro-Arg-pNA, pH 7.8, 30° C., 30 min incubation; read-out: IC50 class, Target T-7 (Trypsin)
T2 sequence (P00760 1-246): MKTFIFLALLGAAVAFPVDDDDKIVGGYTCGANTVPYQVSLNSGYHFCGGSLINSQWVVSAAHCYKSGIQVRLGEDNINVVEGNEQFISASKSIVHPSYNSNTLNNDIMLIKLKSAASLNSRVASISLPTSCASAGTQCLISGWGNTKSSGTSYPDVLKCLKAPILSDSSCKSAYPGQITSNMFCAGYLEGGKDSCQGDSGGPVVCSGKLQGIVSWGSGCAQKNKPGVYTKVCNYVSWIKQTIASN
Experimental: as §2

[11] = biological target: hPin1 (Homo sapiens, UniProt Q13526); test: protease-coupled PPIase assay, hPin1; assay type: biochemical; details: 6 nM hPin1, substrate Ac-Ala-Ala-Ser(PO3H2)-Pro-Arg-pNA, trypsin, pH 7.8, 6° C.; read-out: IC50 class, Target T-1 (hPin1)
Sequence of hPin1 (Q13526 whole entry): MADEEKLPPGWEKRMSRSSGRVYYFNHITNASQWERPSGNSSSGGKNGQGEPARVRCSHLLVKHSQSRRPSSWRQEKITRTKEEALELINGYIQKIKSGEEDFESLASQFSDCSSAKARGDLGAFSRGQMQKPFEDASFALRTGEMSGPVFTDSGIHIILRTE

[12] = WST-1 cytotoxicity assay, MCF-7; assay type: cell-based; details: human, MCF-7 cells (breast adenocarcinoma); WST-1, 48 h incubation; read-out: EC50 class, cytotoxic effect, CL-5 (MCF-7)
Experimental: as §1

[13] = system: Hela cells; test: DAPI staining; assay type: cell-based, human; details: FIG. 3
Experimental: Hela cells grown on poly-L-Lys-coated coverslips were fixed with 2% paraformaldehyde/MeOH.
Cellular DNA was stained with DAPI staining buffer (100 mM Tris (pH 7.4), 150 mM NaCl, 1 mM CaCl2, 0.5 mM MgCl2, 0.1% nonidet P-40, 1 μg/ml DAPI (Molecular Probes)). All the steps were performed at room temperature, and cells were washed two times with PBS after each step. Finally, cells were mounted in 80% glycerol/PBS.

SMILES: Cc1c(Cl)cc(NC(=S)Nc2ccc(C(F)(F)F)cc2)c(O)c1Cl [Compound 264]
- EC50 at 48 h [1]: < 10 µM
- IC50 [2]: > 100 µM
- EC50 at 48 h [3]: < 10 µM
- EC50 at 48 h [4]: < 10 µM
- EC50 at 48 h [5]: < 10 µM
- cytotoxic effect on the tumor cell lines tested [6]: particular relevance
- induction of apoptosis (FACS analysis of FITC-dUTP-labelled DNA breaks) [7]: induce apoptosis
- IC50 [8]: > 100 µM
- cyclin D1 down regulation [9]: particular relevance
- IC50 [10]: > 100 µM
- IC50 [11]: < 1 µM
- EC50 at 48 h [12]: < 10 µM
- induction of apoptosis (DAPI staining, fluorescence microscopy) [13]: induce apoptosis

Reference: US20110065760A1, “COMPOUNDS FOR THE INHIBITION OF ROTAMASES AND USE THEREOF” (Jerini AG, priority 2002, published 2011)
